Data on five compounds can be found in patent publication US5298503A, “N-(isoquinolin-5-ylsulphonyl) azacycloalkanes” (Adir et Compagnie, priority 1991, dated 1994).

Test [1] has as its system left auricle of guinea-pigs. As to the kind of experiment: Effect on the toxic effects of ouabain on the left auricle of guinea-pigs. As to conditions: compound 10^-5 M, ouabain 10^-6 M; for % contracture: percentage of the initial contraction developed. As for the experimental part: The left auricles are removed from guinea-pigs (350-450 g) which have been anaesthetised with sodium pentobarbital (30 mg/kg). The auricles are attached to a STATHAM (UC2-GOULD) tension sensor and the initial tension applied is 0.5 grammes. The auricles are stimulated electrically at 1 Hz by means of platinum electrodes.
Toxic effect is achieved by the addition of ouabain (10^-6 M). The test compounds are added 15 minutes prior to the addition of the toxic agent.

For a further test, the system named is rat aortas. The experiment in a line: Anti-vasoconstrictive activity in physiological medium: contraction of rat aortas induced by potassium depolarisation. The arrangement: species or system WISTAR rats. As to conditions: 0.25 h, hyperpotassic medium (80 mM KCl, 37 mM NaCl), cumulative concentrations every 15 minutes, 37° C., read-out: Concentration inhibiting by 50% (IC50) the contraction of rat aortas induced by potassium depolarisation. The procedure: (§1) The studies are carried out on rings, having a length of 3 mm, of aortas removed from WISTAR rats (325-375 g) which have been anaesthetised with sodium pentobarbital (30 mg/kg i.p.); or of aortas removed from New Zealand rabbits (1.8-2 kg) which have likewise been anaesthetised with sodium pentobarbital (30 mg/kg i.p.).
(§2) The vascular rings are immersed in a physiological solution, normal or calcium-free (+0.2 mM of EGTA chelator), which is kept at a temperature of 37° C. and aerated with a mixture of 95% O2 +5% CO2. The rings are connected to a STATHAM (UC2-GOULD) tension sensor. The optimum tensions for each vessel are applied and a stabilisation period of 90 minutes for the specimens is observed.
Table (T1) summarises the IC50s obtained with the compounds of the Examples representing the compounds of the invention, with regard to the contraction of rat aortas induced by a hyperpotassic medium.

Another test deals with rabbit aortas. As to the kind of experiment: Anti-vasoconstrictive activity in calcium-free medium: contraction of rabbit aortas induced by noradrenaline. The arrangement: species or system New Zealand rabbits. The following applies: Oryctolagus cuniculus, 0.5 h, 30 minutes incubation, noradrenaline 10^-6 M, calcium-free (+0.2 mM EGTA); for inhibition at 1 µM: 10^-6 M compound; for inhibition at 0.1 µM: 10^-7 M compound. The procedure: as §1, §2
The inhibitory effect of a concentration of the compounds of the invention incubated for 30 minutes, with regard to vascular contraction induced by nonadrenaline (10^-6 M), is tested.

The test system of another test is isolated rat's heart. The experiment in a line: Protective effect on an isolated rat's heart subjected to hypoxia-reoxygenation. The arrangement: species or system WISTAR rats. As to conditions: compound 8·10^-7 M, solvent H2O; for % PVG at 30 min DE REOXYGENATION: 30 min reoxygenation after 60 min hypoxia. As for the experimental part: The heart is removed from WISTAR rats (325-375 g). The heart is perfused rapidly according to the technique of LANGENDORFF at a constant pressure of 76 mmHg and is stimulated electrically at 5 Hz.
The heart is subjected to hypoxia for 60 minutes, which is effected by the administration of a gaseous mixture of 95% N2 +5% CO2 during that period, and is followed by reoxygenation for 30 minutes.
The test compounds are incubated for 15 minutes prior to and for the duration of the hypoxia.
The isovolumetric contractions are recorded by means of a polyethylene balloon connected to a pressure sensor (P23-GOULD) introduced into the left ventricle and inflated so as to obtain a diastolic pressure of between 5 and 10 mm of mercury.

Counter-ions that a name gives are not always drawn.

Take `CN(CCCCCOc1ccc(F)cc1)C1CCN(S(=O)(=O)c2cccc3cnccc23)CC1` [Example 4, Fumarate of 1-(isoquinolin-5-ylsulphonyl)-4 {N-methyl N-[5-(p-fluorophenoxy)pentyl]amino}piperidine]: the “% contraction” value came out at 213.9 ± 22% in test [1] (10 min, solvent DMSO); 208.6 ± 22% in test [1] (30 min, solvent DMSO); 211.1 ± 30% in test [1] (60 min, solvent DMSO). For the same compound, the “% contracture” value in test [1] (15 min, solvent DMSO) was determined as 0%; in test [1] (30 min, solvent DMSO) it was 0%; in test [1] (60 min, solvent DMSO), 0%.
Take `CN(CCCC(=O)c1ccc(F)cc1)CC1CCN(S(=O)(=O)c2cccc3cnccc23)CC1` [Example 5, Dihydrochloride of 1-(isoquinolin-5-ylsulphonyl)-4-{N-methyl-N-[4-(p-fluorophenyl)-4-oxobutyl]aminomethyl}piperidine]: the “% contraction” value in test [1] (10 min, solvent H2O) is 206.1 ± 21%; in test [1] (30 min, solvent H2O), 186.1 ± 21.2%; in test [1] (60 min, solvent H2O), 141.3 ± 25.3%. Besides, the “% contracture” value in test [1] (15 min, solvent H2O) came to 0%; in test [1] (30 min, solvent H2O), 2.8 ± 2.1%; in test [1] (60 min, solvent H2O), 16.5 ± 9.5%.
Consider `CN(CCCOc1ccc(F)cc1)CC1CCN(S(=O)(=O)c2cccc3cnccc23)CC1` [Example 3, Fumarate of 1-(isoquinolin-5-ylsulphonyl)-4-{{N-methyl-N-[3-(p-fluorophenoxy)propyl]amino}methyl}piperidine], for which, in the test on rat aortas, the IC50 is 1.5 µM. For the same compound, in the test on rabbit aortas, the inhibition (commonly the relative decrease from the control value, in per cent) at 1 µM came out at 82% and the inhibition at 0.1 µM amounted to 43%. In addition, in test [1] (10 min, solvent H2O), the “% contraction” value came to 183.3 ± 20.7%. The “% contracture” value in test [1] (15 min, solvent H2O) is recorded as 0.9 ± 0.9%. In addition, in test [1] (30 min, solvent H2O), the “% contraction” value is listed as 155.4 ± 15.0% and the “% contracture” value is given as 7.7 ± 1.5%. Also, in test [1] (60 min, solvent H2O), the “% contraction” value was determined as 130.7 ± 34.5% and the “% contracture” value is listed as 21.8 ± 6.2%. Further, in the test with isolated rat's heart, the “Contracture amplitude at 15 min reoxygenation” value is reported as 9.6 ± 2.4 mmHg, the “% PVG at 30 min DE REOXYGENATION” value turned out to be 85.4 ± 5.8% and the “Contracture amplitude at 30 min reoxygenation” value is reported as 1.6 ± 1.0 mmHg.
As for `CN(CCCCOc1ccc(F)cc1)C1CCN(S(=O)(=O)c2cccc3cnccc23)CC1` [Example 1, Fumarate of 1-(isoquinolin-5-ylsulphonyl)-4-{N-methyl-N-[4-(p-fluorophenoxy)butyl]amino}piperidine], the IC50 in the test on rat aortas turned out to be 9.2 µM. The inhibition at 1 µM in the test on rabbit aortas turned out to be 62%. Also, the “% contraction” value in test [1] (10 min, solvent DMSO) stood at 254.7 ± 22%; in test [1] (30 min, solvent DMSO) it was 260.6 ± 29%; in test [1] (60 min, solvent DMSO), 253.6 ± 26%. For the same compound, the “% contracture” value in test [1] (15 min, solvent DMSO) was found to be 0%; in test [1] (30 min, solvent DMSO), 0%; in test [1] (60 min, solvent DMSO), 4 ± 4%.
Take `CN(CCCC(=O)c1ccc(F)cc1)C1CCN(S(=O)(=O)c2cccc3cnccc23)CC1` [Example 2, Dihydrochloride of 1-(isoquinolin-5-ylsulphonyl)-4-{N-methyl-N-[4-oxo-4-(p-fluorophenyl)butyl]amino}piperidine]: in the test on rat aortas, the IC50 was found to be 3.3 µM. For the same compound, in the test on rabbit aortas, the inhibition at 1 µM came to 86% and the inhibition at 0.1 µM stood at 50%. Besides, the “% contraction” value in test [1] (10 min, solvent H2O) is recorded as 184.0 ± 17.3%. The “% contracture” value in test [1] (15 min, solvent H2O) is 1.4 ± 1.4%. Also, in test [1] (30 min, solvent H2O), the “% contraction” value came out at 138.8 ± 34.9% and the “% contracture” value is on record as 10.5 ± 4.7%. In addition, in test [1] (60 min, solvent H2O), the “% contraction” value is 112.2 ± 31.0% and the “% contracture” value turned out to be 33.5 ± 16.4%. In the test on isolated rat's heart, the “Contracture amplitude at 15 min reoxygenation” value worked out at 5.5 ± 4.3 mmHg, the “% PVG at 30 min DE REOXYGENATION” value is on record as 95.0 ± 1.9% and the “Contracture amplitude at 30 min reoxygenation” value amounted to 0.5 ± 0.5 mmHg.
